These results are taken from PubChem BioAssay AID192 (DTP/NCI, 2004).

This test has as its system BDF1 mice, B16 melanoma ip, median survival T/C. The test can be described thus: NCI In Vivo Anticancer Drug Screen. Data for tumor model B16 Melanoma (intraperitoneal) in B6D2F1 (BDF1) mice. The conditions noted are these: endpoint: median survival time, higher = longer survival. Put shortly:
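Vehicle-treated animals serve as the reference (C); treated animals (T) are scored for survival or tumor size after tumor transplantation.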

[1] abbreviates: dose: 100.0 mg/kg/injection, schedule: Q01DX009 (ip), vehicle: Klucel (hydroxypropylcellulose) (HPC).
Setting [2] is: dose: 100.0 mg/kg/injection, schedule: Q04DX003 (ip), vehicle: Klucel (hydroxypropylcellulose) (HPC).
Setting [3] is: dose: 200.0 mg/kg/injection, schedule: Q01DX009 (ip), vehicle: Klucel (hydroxypropylcellulose) (HPC).
The mark [4] stands for this setting: dose: 200.0 mg/kg/injection, schedule: Q04DX003 (ip), vehicle: Klucel (hydroxypropylcellulose) (HPC).
Where [5] appears, read: dose: 400.0 mg/kg/injection, schedule: Q01DX009 (ip), vehicle: Klucel (hydroxypropylcellulose) (HPC).
Setting [6] is: dose: 400.0 mg/kg/injection, schedule: Q04DX003 (ip), vehicle: Klucel (hydroxypropylcellulose) (HPC).
The mark [7] stands for this setting: dose: 25.0 mg/kg/injection, schedule: Q01DX009 (ip), vehicle: Klucel (hydroxypropylcellulose) (HPC).
Setting [8] is: dose: 50.0 mg/kg/injection, schedule: Q01DX009 (ip), vehicle: Klucel (hydroxypropylcellulose) (HPC).
Setting [9] is: dose: 50.0 mg/kg/injection, schedule: Q01DX009 (ip), vehicle: saline with Tween-80.
[10] abbreviates: dose: 100.0 mg/kg/injection, schedule: Q01DX009 (ip), vehicle: saline with Tween-80.
Setting [11] is: dose: 25.0 mg/kg/injection, schedule: Q01DX009 (ip), vehicle: saline with Tween-80.
[12] abbreviates: dose: 50.0 mg/kg/injection, schedule: Q01DX009 (ip), vehicle: saline.
[13] abbreviates: dose: 200.0 mg/kg/injection, schedule: Q01DX009 (ip), vehicle: saline.

Structures are written as SMILES. Values joined by “and” are separate entries in the source; they are usually repeats but may differ in a detail not shown here. Equal entries are not always repeated. Toxic doses and inconclusive results are not listed. Square brackets hold non-standard residues; d marks the D form. Peptide text beside a SMILES is read from it. * marks the point of attachment. Cbz = O=C(OCc1ccccc1)*; Nva = CCC[CH](N)C(=O)O

With `Cc1ccc(NS(=O)(=O)c2ccc(F)cc2)cc1Cl`, the T/C under setting [1] was 90 % of control; the T/C under setting [2] is 103 % of control; the T/C under setting [3] is 100 % of control; the T/C under setting [4] was 100 % of control; the T/C under setting [5] was 86 % of control; the T/C under setting [6] is 110 % of control.
In the case of `CCCCCC#CC(=O)O`, the T/C was 95 % of control (dose: 75.0 mg/kg/injection, schedule: Q01DX009 (ip), vehicle: Klucel (hydroxypropylcellulose) (HPC)) and 86 % of control (dose: 150.0 mg/kg/injection, schedule: Q01DX009 (ip), vehicle: Klucel (hydroxypropylcellulose) (HPC)).
Regarding `O=C(NNCc1ccccc1)C(O)C(O)C(O)CO` (stereo not drawn), the T/C under setting [7] was 95 % of control; the T/C under setting [8] is 95 % of control; the T/C under setting [1] was 92 % of control; the T/C under setting [3] was 100 % of control; the T/C under setting [5] was 95 % of control.
For the compound `CC(NC(=O)C(Cc1ccc(O)cc1)NC(=O)C(C)NC(=O)OCc1ccccc1)C(=O)O` (stereo not drawn) (Cbz-Ala-Tyr-Ala-OH; configuration not given here), the T/C is 98 % of control under setting [9]; 93 % of control under setting [10]; 96 % of control (dose: 200.0 mg/kg/injection, schedule: Q01DX009 (ip), vehicle: saline with Tween-80); 92 % of control (dose: 400.0 mg/kg/injection, schedule: Q01DX009 (ip), vehicle: saline with Tween-80).
For the compound `C=CCNC(=S)Nc1cc(Cl)ccc1OC`, the T/C runs as follows: under setting [1], 93 % of control; under setting [3], 93 % of control; under setting [5], 93 % of control.
On to `CC#CC#C/C=C1\OC2(CCCCO2)C(O)C1OC(=O)CC(C)C` (stereo not drawn), for which the T/C is, setting by setting: (dose: 10.0 mg/kg/injection, schedule: Q01DX009 (ip), vehicle: Klucel (hydroxypropylcellulose) (HPC)) 103 % of control; (dose: 20.0 mg/kg/injection, schedule: Q01DX009 (ip), vehicle: Klucel (hydroxypropylcellulose) (HPC)) 103 % of control; (dose: 40.0 mg/kg/injection, schedule: Q01DX009 (ip), vehicle: Klucel (hydroxypropylcellulose) (HPC)) 94 % of control.
As for `BrC[P+](CBr)(CBr)CBr`, the T/C was 100 % of control (dose: 12.5 mg/kg/injection, schedule: Q01DX009 (ip), vehicle: saline with Tween-80); 105 % of control under setting [11]; 104 % of control under setting [9]; 89 % of control under setting [10].
As to `CC(=N\O)/C(C)=N/O.CC(=N\O)/C(C)=N/O.[Pd]`, the T/C is, setting by setting: (dose: 0.75 mg/kg/injection, schedule: Q01DX009 (ip), vehicle: Klucel (hydroxypropylcellulose) (HPC)) 96 % of control; (dose: 1.57 mg/kg/injection, schedule: Q01DX009 (ip), vehicle: Klucel (hydroxypropylcellulose) (HPC)) 95 % of control; (dose: 3.13 mg/kg/injection, schedule: Q01DX009 (ip), vehicle: Klucel (hydroxypropylcellulose) (HPC)) 96 % of control; (dose: 6.25 mg/kg/injection, schedule: Q01DX009 (ip), vehicle: Klucel (hydroxypropylcellulose) (HPC)) 94 % of control.
Turning to `Cc1ccc(NS(=O)(=O)c2ccc(F)cc2)cc1C`, the T/C reads like this: under setting [1], 96 % of control; under setting [3], 100 % of control; under setting [5], 93 % of control.
With `O=C(O)c1ccc(S(=O)(=O)O)cc1C(=O)O`, the T/C runs as follows: under setting [12], 92 % of control; (dose: 100.0 mg/kg/injection, schedule: Q01DX009 (ip), vehicle: saline) 96 % of control; under setting [13], 98 % of control.
For the compound `Br/C=C/C[N+]12CN3CN(CN(C3)C1)C2`, the T/C is, setting by setting: (dose: 12.5 mg/kg/injection, schedule: Q01DX009 (ip), vehicle: saline) 117 % of control; (dose: 25.0 mg/kg/injection, schedule: Q01DX009 (ip), vehicle: saline) 103 % of control; under setting [12], 110 % of control.
For the compound `CC1=CC(=O)c2ccccc2C1=O`, the T/C under setting [11] is 108 % of control and 118 % of control.
For `CC(C)CC(N)C(=O)NCC(=O)NC(Cc1ccccc1)C(=O)O` (stereo not drawn) (H-Leu-Gly-Phe-OH; configuration not given here), the T/C by setting is: under setting [1], 93 % of control; under setting [2], 95 % of control; under setting [3], 91 % of control; under setting [4], 97 % of control; under setting [5], 89 % of control; under setting [6], 102 % of control.
`CCO/C([O-])=C/[P+](c1ccccc1)(c1ccccc1)c1ccccc1`: the T/C runs as follows: (dose: 12.5 mg/kg/injection, schedule: Q01DX009 (ip), vehicle: Klucel (hydroxypropylcellulose) (HPC)) 103 % of control; under setting [7], 103 % of control; under setting [8], 100 % of control.
With `CNC(=O)Nc1ccc(C(=O)NC(C)C)cc1`, the T/C was 98 % of control under setting [7]; 97 % of control under setting [8]; 96 % of control under setting [1]; 100 % of control under setting [3]; 88 % of control under setting [5].
As to `C=CCOCC(O)CN(C)CCCC` (stereo not drawn), the T/C reads like this: (dose: 50.0 mg/kg/injection, schedule: Q04DX003 (ip), vehicle: saline) 108 % of control; (dose: 100.0 mg/kg/injection, schedule: Q04DX003 (ip), vehicle: saline) 108 % of control.
For the compound `C=C1CCC2(C)C(O)CC3(C)C(CCC4C5(C)CCC(OC(C)=O)C(C)(C)C5CCC43C)C2C1C` (stereo not drawn), the T/C reads like this: (dose: 1.0 mg/kg/injection, schedule: Q01DX009 (ip), vehicle: other) 107 % of control; (dose: 2.0 mg/kg/injection, schedule: Q01DX009 (ip), vehicle: other) 101 % of control; (dose: 4.0 mg/kg/injection, schedule: Q01DX009 (ip), vehicle: other) 102 % of control.
Consider `CCCC(NC(=O)C(Cc1ccccc1)NC(=O)OCc1ccccc1)C(=O)O` (stereo not drawn) (Cbz-Phe-[Nva]-OH; configuration not given here), for which the T/C reads like this: under setting [9], 95 % of control; under setting [10], 92 % of control.
Consider `CC12CCC(O)CC1CCC1C2CCC2(C)C(C3=CC(=O)OC3)CCC12O` (stereo not drawn), for which the T/C (dose: 2.0 mg/kg/injection, schedule: Q01DX009 (ip), vehicle: Klucel (hydroxypropylcellulose) (HPC)) is 105 % of control; the T/C (dose: 4.0 mg/kg/injection, schedule: Q01DX009 (ip), vehicle: Klucel (hydroxypropylcellulose) (HPC)) is 96 % of control; the T/C (dose: 8.0 mg/kg/injection, schedule: Q01DX009 (ip), vehicle: Klucel (hydroxypropylcellulose) (HPC)) is 98 % of control.
Turning to `Cc1ccc(C(=O)NC2C(=O)NC(C(C)C)C(=O)N3CCCC3C(=O)N(C)CC(=O)N(C)C(C(C)C)C(=O)OC2C)c2c1Oc1c(c(C(=O)NC3C(=O)NC(C(C)C)C(=O)N4CCCC4C(=O)N(C)CC(=O)N(C)C(C(C)C)C(=O)OC3C)c3nc(-c4ccccc4)c(=O)oc3c1C)N2` (stereo not drawn), the T/C is 124 % of control (dose: 0.13 mg/kg/injection, schedule: Q04DX003 (ip), vehicle: saline + alcohol); 155 % of control (dose: 0.13 mg/kg/injection, schedule: Q04DX003 (ip), vehicle: water); 152 % of control (dose: 0.25 mg/kg/injection, schedule: Q04DX003 (ip), vehicle: saline + alcohol); 156 % of control (dose: 0.5 mg/kg/injection, schedule: Q04DX003 (ip), vehicle: saline + alcohol); 163 % of control (dose: 0.5 mg/kg/injection, schedule: Q04DX003 (ip), vehicle: water); 191 % of control (dose: 1.0 mg/kg/injection, schedule: Q04DX003 (ip), vehicle: saline + alcohol). In addition, the T/C (dose: 1.0 mg/kg/injection, schedule: Q04DX003 (ip), vehicle: water) was 173 % of control.
For `c1ccc(-c2nc(N3CCOCC3)nc3ccccc23)cc1`, the T/C was 104 % of control (dose: 100.0 mg/kg/injection, schedule: Q04DX003 (ip), vehicle: saline with Tween-80) and 88 % of control (dose: 200.0 mg/kg/injection, schedule: Q04DX003 (ip), vehicle: saline with Tween-80).
With `CCN(CC)CCCCCOC(=O)c1ccccc1`, the T/C runs as follows: under setting [8], 112 % of control; under setting [1], 93 % of control; under setting [3], 103 % of control.
For the compound `O=c1[nH][nH]c(=O)n1O`, the T/C (dose: 130.0 mg/kg/injection, schedule: Q01DX009 (ip), vehicle: saline) was 112 % of control; the T/C under setting [13] was 103 % of control; the T/C (dose: 300.0 mg/kg/injection, schedule: Q01DX009 (ip), vehicle: saline) was 115 % of control.
`C=C1C(=O)OC2CC3(C)CC(O)C(OC(C)=O)C(=C)C3CC12` (stereo not drawn): the T/C (dose: 2.5 mg/kg/injection, schedule: Q01DX009 (ip), vehicle: saline) was 109 % of control; the T/C (dose: 5.0 mg/kg/injection, schedule: Q01DX009 (ip), vehicle: saline) is 104 % of control; the T/C (dose: 10.0 mg/kg/injection, schedule: Q01DX009 (ip), vehicle: saline) was 106 % of control.
